Test results reported in patent publication US20230364102A1, “COMPOSITIONS AND METHODS FOR THE TREATMENT OF NEUROLOGICAL DISORDERS” (Duke University, priority 2020, published 2023).

Key:
ATM pSer1981 [1] = details: following treatment with the neurotoxin; cited from earlier work
[2] = tested on: LRRK2 G2019S patient-derived cells; experiment: mtDNA damage in LRRK2 G2019S patient-derived cells; type: cell-based, human; details: 24 h, 1 μM, n=3
Method: (§1) This example describes how mitochondrial DNA damage was measured using a quantitative PCR-based assay as described above. The following reagents and protocol steps as disclosed in Sanders et al., Curr Protoc Toxicol. 2018 May; 76(1): e50, doi: 10.1002/cptx.50 and also in U.S. Pat. No. 11,001,890. The entire contents of said publication and patent are herein incorporated by reference.
(§2) Make a master mix if several samples are being run simultaneously. […]
(§3) Perform the PCR reaction using the PCR amplification profile is as follows for the large mitochondrial PCR product using the KAPA LongRange Hot Start kit: • Melting: 94° C. for 3 min • Amplification: the optimized number of cycles (26-28) of melting (94° C. for 15 sec) and annealing (66° C. for 12 min). • Final extension: To complete the profile and finalize amplification of products, perform a final extension for 10 min at 72° C. • Holding: Hold at 4° C. until products are removed for quantification. […]
(§4) (1) Add 10 μL of each PCR product and 90 μL of TE buffer to each of triplicate wells. […] Follow steps 6, 7 and 8 in Support Protocol 2 for fluorescent quantification of DNA.
(§5) Normalize large mitochondrial PCR product fluorescence values for copy number differences using the small mitochondrial PCR product. […] This is the normalized large mitochondrial fluorescence value (A. M. Furda, Bess, Meyer, & Van Houten, 2012a). […]

[3] = tested on: human LRRK2 G2019S or GFP expressing neuronal cultures; experiment: QPCR-based mtDNA damage assay in primary midbrain neuronal cultures expressing human LRRK2 G2019S; type: cell-based; details: treated for 6 h
Description: Divide the normalized fluorescence values of each sample by the average normalized fluorescence value to get a ratio. […]

[4] = tested on: primary rat midbrain neurons; experiment: Rotenone-induced mtDNA damage in primary midbrain neurons; type: cell-based; details: pre-treated for 24 h before rotenone
Method: as §1, §2, §3, §4, §5

ATM pSer1981 [5] = experiment: Western blot of ATM pSer1981 in HEK293 cells; type: cell-based, human; details: 100 nM, 24 h vs vehicle

SMILES: C[n+]1ccc(-c2ccccc2)cc1 [MPP+]
- expression of ATM pSer1981 (ATM pSer1981 [1]): increased

SMILES: C[C@@H]1CN(CC(=O)Nc2ccc3c(c2)Cc2cccc(-c4cc(=O)cc(N5CCOCC5)o4)c2S3)C[C@H](C)O1 [KU60019]
- mtDNA damage [2]: sufficient to reverse mtDNA damage

SMILES: CCNc1nc(Nc2cc(F)c(C(=O)N3CCOCC3)cc2OC)ncc1C(F)(F)F [GNE-7915]
- mtDNA damage (mtDNA integrity) [3]: restored mtDNA integrity
- prevention of rotenone induced mtDNA damage [4]: able to prevent rotenone induced mtDNA damage

SMILES: C=C(C)[C@H]1Cc2c(ccc3c2O[C@@H]2COc4cc(OC)c(OC)cc4[C@@H]2C3=O)O1 [rotenone]
- ATM pSer1981 (kinase active) level (ATM pSer1981 [5]): increased ATM pSer1981 levels
- ATM pSer1981 (kinase active) level (ATM pSer1981 [5]; listed as Rotenone): increased levels of ATM pSer1981
